Reference: US20050010123A1, “Process for measuring QT intervals and constructing composite histograms to compare groups” (priority 2003, published 2005)

Experiment: Beat-to-beat QTc interval histograms from 24-hour ambulatory ECG (Holter) recordings
Assay type: in vivo, patients
From the text: An example of this type of device is a Reynolds Medical Tracker II (Reynolds Medical, Hertford UK) recorder. […] For QT interval analysis, the sample rate can be between 128 and 2000 samples per seconds. The preferred embodiment is the use of a sample rate of at least of at least 1000 samples per second. These digital recorders must also be compatible with a Holter playback system that can produce beat-to beat interval measurements. An example of this type of device is the Reynolds Medical LifeCard CF recorder (Reynolds Medical, Hertford, UK). An example of the compatible Holter playback system is the Reynolds Medical Pathfinder 700 series. […]
Using the digitized file of the electrocardiogram, a QT interval analysis may be accomplished in the following manner: The onset of a Q-wave (Qb) may be defined and a cursor may be placed at this point. […] The data from the digital file may then be replayed at 60-times normal time, while the cursors on the Qb and Te points may be monitored for stability. […] The QT intervals may be measured for the entire AECG recording on a beat-to-beat basis. […]
The peak of an R-wave may be detected and a third cursor may be placed (Rp). […]
In the examples described herein QTc was calculated by removing a time-series of the QT and preceding R--R intervals to a high-speed computer with both a fast processor and adequate disk storage space. […]

COc1cc(N)c(Cl)cc1C(=O)NC1CCN(CCCOc2ccc(F)cc2)CC1OC (centres unmarked) [cisapride, Cisapride]
mean QTc interval (QTc interval histogram of a single patient taking cisapride (FIG. 3), 24 hour AECG): 440 ms
mean QTc (composite curve of subjects on drug therapy (FIG. 4: subjects on cisapride), normal subjects 409 msec, ILQT 475 msec): 430 ms
